In ChEMBL document CHEMBL5126506, “Coumarin-benzimidazole hybrids: A review of developments in medicinal chemistry” (Eur J Med Chem, 2022):
pIC50: −log10 of the molar value. In brackets after ≈: the same amount, converted by molar mass.

How the values were obtained:
Metaphire sieboldi = assay: Anthelmintic activity against Metaphire sieboldi assessed as mean paralysing time up to 0.5% w/v; assay type: functional
[1] = biological target: Serum paraoxonase/arylesterase 1 (Homo sapiens, UniProt P27169); assay: Inhibition of human PON1 using paraoxon as a substrate by regression analysis
Staphylococcus aureus [2] = assay: Antibacterial activity against Staphylococcus aureus ATCC 6538 assessed as zone of inhibition at 500 ug per disk measured after 24 hrs by NCCLS based disk diffusion method; assay type: functional; details: read-out: DIZ
Escherichia coli [3] = assay: Antibacterial activity against Escherichia coli assessed as zone of inhibition at 25 ug/ml; assay type: functional; details: read-out: DIZ
[4] = Antibacterial activity against Xanthomonas citri assessed as zone of inhibition at 25 ug/ml; assay type: functional; details: read-out: DIZ
Mus musculus = assay: Antiinflammatory activity in carrageenan induced mouse paw oedema model assessed as inhibition of paw oedema at 100 mg/kg, po pretreated with compound for 30 mins followed by carrageenan injection measured after 5 hrs relative to control; assay type: functional; set-up: scale not given: the % may be the effect or the level left; details: time 5.5 hrs
[5] = Antioxidant activity assessed as DPPH radical scavenging activity incubated for 10 mins in dark condition by spectrophotometer method; assay type: functional
Pseudomonas aeruginosa [6] = assay: Antibacterial activity against Pseudomonas aeruginosa assessed as cell growth inhibition measured after 24 hrs by serial broth-dilution method; assay type: functional
Aspergillus flavus [7] = assay: […] activity against Aspergillus flavus assessed as zone of inhibition measured after 24 hrs by agar well diffusion method; assay type: functional
Bacillus subtilis [8] = assay: Antibacterial activity against Bacillus subtilis assessed as zone of inhibition measured after 24 hrs by agar well diffusion method; assay type: functional
[9] = Antioxidant activity assessed as DPPH radical scavenging activity preincubated for 24 hrs followed by dark incubation 30 mins by UV-visible spectrophotometer method; assay type: functional
Escherichia coli [10] = assay: Antibacterial activity against Escherichia coli assessed as zone of inhibition measured after 24 hrs by agar well diffusion method; assay type: functional
Aspergillus flavus [11] = assay: […] activity against Aspergillus flavus assessed as cell growth inhibition measured after 24 hrs by serial broth-dilution method; assay type: functional
Escherichia coli [12] = assay: Antibacterial activity against Escherichia coli MTCC 739 measured after 16 hrs by CLSI based microtitre broth dilution method; assay type: functional
Bacillus subtilis [13] = assay: Antibacterial activity against Bacillus subtilis MTCC 1789 measured after 16 hrs by CLSI based microtitre broth dilution method; assay type: functional
Staphylococcus aureus [14] = assay: Antibacterial activity against Staphylococcus aureus ATCC 6538P measured after 16 hrs by CLSI based microtitre broth dilution method; assay type: functional
Pseudomonas aeruginosa [15] = assay: Antibacterial activity against Pseudomonas aeruginosa ATCC 25668 measured after 16 hrs by CLSI based microtitre broth dilution method; assay type: functional

Chain of Serum paraoxonase/arylesterase 1 (P27169 whole entry, the tested form may be a part): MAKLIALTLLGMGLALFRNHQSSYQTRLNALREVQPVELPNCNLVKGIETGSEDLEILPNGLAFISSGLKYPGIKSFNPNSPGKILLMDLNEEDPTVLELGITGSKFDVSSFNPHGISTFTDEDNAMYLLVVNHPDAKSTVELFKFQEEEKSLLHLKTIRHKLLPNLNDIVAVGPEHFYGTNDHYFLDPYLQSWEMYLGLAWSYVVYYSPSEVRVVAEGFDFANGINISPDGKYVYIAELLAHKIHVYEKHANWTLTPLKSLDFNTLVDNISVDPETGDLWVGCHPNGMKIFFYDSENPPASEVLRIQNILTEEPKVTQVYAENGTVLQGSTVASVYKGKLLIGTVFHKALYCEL

O=C(Cc1cc(=O)oc2ccccc12)Nc1nc2ccccc2[nH]1
Time (Metaphire sieboldi): 14 min

Cc1c(C)c(C)c(Cn2c[n+](Cc3cc(=O)oc4cc(O)ccc34)c3ccccc32)c(C)c1C
pIC50 [1]: 5.11

O=c1oc2ccccc2c(Nc2nc3ccccc3[nH]2)c1[N+](=O)[O-]
zone of inhibition at 500 µg/disc (Staphylococcus aureus [2]): 23 mm

CCOC(=O)c1sc(Sc2cc3ccccc3oc2=O)c(-c2nc3ccccc3[nH]2)c1N
zone of inhibition at 25 µg/mL (Escherichia coli [3]): 19 mm
zone of inhibition at 25 µg/mL [4]: 14 mm

COc1ccc(N2CC(c3cc(=O)oc4cc(C)ccc34)c3nc4ccccc4n3C2)cc1 (configuration not stated)
Activity (Mus musculus): 52.61%

O=C(CC(Sc1nc2ccccc2[nH]1)c1ccccc1)c1cc2ccccc2oc1=O (configuration not stated)
IC50 [5]: 35 mg/mL (≈ 82100 µM)
MIC (Pseudomonas aeruginosa [6]): 2200 µg/mL (≈ 5160 µM)

O=c1oc2ccccc2c(O)c1C(Sc1nc2ccccc2[nH]1)c1ccc(O)cc1 (configuration not stated)
diameter of the inhibition zone (DIZ) (Aspergillus flavus [7]): 18 mm
diameter of the inhibition zone (DIZ) (Bacillus subtilis [8]): 19 mm
IC50 [9]: 9.82 µg/mL (≈ 23.6 µM)
diameter of the inhibition zone (DIZ) (Escherichia coli [10]): 17 mm
MIC (Aspergillus flavus [11]): 200 µg/mL (≈ 480 µM)

O=c1oc2ccccc2cc1/C(Cn1cnc2ccccc21)=N\OCc1ccc(Cl)cc1
MIC (Escherichia coli [12]): 3.12 µg/mL (≈ 7.03 µM)
MIC (Bacillus subtilis [13]): 0.95 µg/mL (≈ 2.14 µM)
MIC (Staphylococcus aureus [14]): 1.56 µg/mL (≈ 3.51 µM)
MIC (Pseudomonas aeruginosa [15]): 3.12 µg/mL (≈ 7.03 µM)
